Measured values: US20250051327A1, “MALT-1 MODULATORS” (EXSCIENTIA AI LIMITED, priority 2020, published 2025)

Legend:
[1] = system: IL-2 secretion by human effector memory T cells (TEM); assay: Effector memory T cells IL-2 release assay; format: cell-based; conditions: T-cell; human CD4+ effector memory T cells, CD3/CD28 bead stimulation, 24 h; read-out: CD4TC IL2 IC50
Method in brief: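 Human CD4+ effector memory T cells from healthy-donor buffy coats were stimulated with anti-CD3/CD28 Dynabeads and exposed to 10 semi-log compound doses (0.1% DMSO) for 24 h at 37 °C. Supernatant IL-2 was measured by HTRF, and IC50 came from a 4-parameter logistic fit to maximal IL-2. Viability was checked by flow cytometry.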

[2] = biological target: Recombinant human MALT-1 (amino acids 340-824) (Homo sapiens (Human), UniProt Q9UDY8); assay: MALT-1 inhibition assay (fluorogenic substrate Ac-LRSR-Rh110-DP); format: biochemical; conditions: recombinant human MALT-1, substrate Ac-LRSR-Rh110-DP
Method in brief: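 MALT-1 at 3 nM final was reacted with 10 μM Ac-LRSR-Rh110-DP, with substrate addition starting the reaction. Incubation ran 60 minutes at 25° C in the dark. Percent inhibition from fluorescence across doses was fitted to a 4-parameter logistic to give IC50.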

Chain of Recombinant human MALT-1 (amino acids 340-824) (Q9UDY8 340-824): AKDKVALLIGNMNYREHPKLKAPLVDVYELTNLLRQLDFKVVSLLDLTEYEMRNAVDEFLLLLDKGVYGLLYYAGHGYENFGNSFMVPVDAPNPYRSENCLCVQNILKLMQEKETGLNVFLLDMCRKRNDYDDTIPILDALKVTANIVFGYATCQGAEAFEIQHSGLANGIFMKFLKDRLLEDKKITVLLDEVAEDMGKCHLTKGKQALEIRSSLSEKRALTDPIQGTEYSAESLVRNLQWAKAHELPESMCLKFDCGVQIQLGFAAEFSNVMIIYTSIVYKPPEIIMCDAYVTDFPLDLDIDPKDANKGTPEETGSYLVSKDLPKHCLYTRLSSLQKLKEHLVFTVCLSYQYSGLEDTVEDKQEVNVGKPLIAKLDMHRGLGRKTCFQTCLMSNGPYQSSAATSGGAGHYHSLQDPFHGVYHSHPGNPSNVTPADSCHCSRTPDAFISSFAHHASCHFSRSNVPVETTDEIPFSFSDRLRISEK

| IC50 [1] | IC50 [2] | Structure (SMILES) |
| --- | --- | --- |
| 0.042 µM | 0.058 µM | CN(C(=O)[C@H]1CC[S@@+]([O-])CC1)[C@@H](c1ccc(N2CCC3(CC3)c3c2cnc2cc(Cl)nn32)cc1)C(F)(F)F (relative stereo) [CPD0072778, (1rel-s,4rel-s)-N-[(1S)-1-(4-{4′-chloro-2′,3′,7′,10′-tetraazaspiro[cyclopropane-1,13′-tricyclo[7.4.0.0^2,6]tridecane]-1′(9′),3′,5′,7′-tetraen-10′-yl}phenyl)-2,2,2-trifluoroethyl]-N-methyl-1-oxo-1λ^4-thiane-4-carboxamide] |
| 0.033 µM | 0.057 µM | CN(C(=O)[C@H]1CC[S@+]([O-])CC1)[C@@H](c1ccc(N2CCC3(CC3)c3c2cnc2cc(Cl)nn32)cc1)C(F)(F)F (relative stereo) [CPD0072779, (1rel-r,4rel-r)-N-[(1S)-1-(4-{4′-chloro-2′,3′,7′,10′-tetraazaspiro[cyclopropane-1,13′-tricyclo[7.4.0.0^2,6]tridecane]-1′(9′),3′,5′,7′-tetraen-10′-yl}phenyl)-2,2,2-trifluoroethyl]-N-methyl-1-oxo-1λ^4-thiane-4-carboxamide] |
| 0.107 µM | 0.075 µM | CN(C(=O)[C@H]1CC[S@@+]([O-])CC1)[C@@H](c1ccc(N2CCC(C)(C)c3c2cnc2cc(F)nn32)cc1)C(F)(F)F (relative stereo) [CPD0072780, (1rel-s,4rel-s)-N-methyl-1-oxo-N-[(1S)-2,2,2-trifluoro-1-(4-{4-fluoro-13,13-dimethyl-2,3,7,10-tetraazatricyclo[7.4.0.0^2,6]trideca-1(9),3,5,7-tetraen-10-yl}phenyl)ethyl]-1λ^4-thiane-4-carboxamide] |
| 0.075 µM | 0.06 µM | CN(C(=O)[C@H]1CC[S@+]([O-])CC1)[C@@H](c1ccc(N2CCC(C)(C)c3c2cnc2cc(F)nn32)cc1)C(F)(F)F (relative stereo) [CPD0072781, (1rel-r,4rel-r)-N-methyl-1-oxo-N-[(1S)-2,2,2-trifluoro-1-(4-{4-fluoro-13,13-dimethyl-2,3,7,10-tetraazatricyclo [7.4.0.02,6]trideca-1(9),3,5,7-tetraen-10-yl}phenyl)ethyl]-1/4-thiane-4-carboxamide] |
| 0.056 µM | 0.049 µM | CN(C(=O)[C@H]1CC[S@@+]([O-])CC1)[C@@H](c1ccc(N2CCC3(CC3)c3c2cnc2cc(F)nn32)cc1)C(F)(F)F (relative stereo) [CPD0072932, (1rel-s,4rel-s)-N-methyl-1-oxo-N-[(1S)-2,2,2-trifluoro-1-(4-{4′-fluoro-2′,3′,7′,10′-tetraazaspiro[cyclopropane-1,13′-tricyclo[7.4.0.0^2,6]tridecane]-1′(9′),3′,5′,7′-tetraen-10′-yl}phenyl)ethyl]-1λ^4-thiane-4-carboxamide] |
| 0.058 µM | 0.033 µM | CN(C(=O)[C@H]1CC[S@+]([O-])CC1)[C@@H](c1ccc(N2CCC3(CC3)c3c2cnc2cc(F)nn32)cc1)C(F)(F)F (relative stereo) [CPD0072933, (1rel-r,4rel-r)-N-methyl-1-oxo-N-[(1S)-2,2,2-trifluoro-1-(4-{4′-fluoro-2′,3′,7′,10′-tetraazaspiro[cyclopropane-1,13′-tricyclo[7.4.0.0^2,6]tridecane]-1′(9′),3′,5′,7′-tetraen-10′-yl}phenyl)ethyl]-1λ^4-thiane-4-carboxamide] |

Second part, the molecule before the results:

| Structure (SMILES) | IC50 [1] | IC50 [2] |
| --- | --- | --- |
| CN=[S@]1(=O)CC[C@@H](C(=O)N(C)[C@@H](c2ccc(N3CCCc4c3cnc3cc(Cl)nn43)cc2)C(F)(F)F)CC1 (relative stereo) [CPD0072530, (1rel-S,4rel-S)—N-[(1S)-1-(4-{4-chloro-2,3,7,10-tetraazatricyclo[7.4.0.0^2,6]trideca-1(9),3,5,7-tetraen-10-yl}phenyl)-2,2,2-trifluoroethyl]-N-methyl-1-(methylimino)-1-oxo-1λ^e-thiane-4-carboxamide] | 0.127 µM | 0.059 µM |
| CN=[S@]1(=O)CC[C@H](C(=O)N(C)[C@@H](c2ccc(N3CCCc4c3cnc3cc(Cl)nn43)cc2)C(F)(F)F)CC1 (relative stereo) [CPD0072531, (1rel-R,4rel-R)—N-[(1S)-1-(4-{4-chloro-2,3,7,10-tetraazatricyclo[7.4.0.0^2,6]trideca-1(9),3,5,7-tetraen-10-yl}phenyl)-2,2,2-trifluoroethyl]-N-methyl-1-(methylimino)-1-oxo-1λ^e-thiane-4-carboxamide] | 0.141 µM | 0.038 µM |
| CN(C(=O)[C@H]1CC[S@@+]([O-])CC1)[C@@H](c1ccc(N2CCC(C)(C)c3c2cnc2cc(Cl)nn32)cc1)C(F)(F)F (relative stereo) [CPD0072776, (1rel-s,4rel-s)-N-[(1S)-1-(4-{4-chloro-13,13-dimethyl-2,3,7,10-tetraazatricyclo[7.4.0.0^2,6]trideca-1(9),3,5,7-tetraen-10-yl}phenyl)-2,2,2-trifluoroethyl]-N-methyl-1-oxo-1λ^4-thiane-4-carboxamide] | 0.035 µM | 0.073 µM |
| CN(C(=O)[C@H]1CC[S@+]([O-])CC1)[C@@H](c1ccc(N2CCC(C)(C)c3c2cnc2cc(Cl)nn32)cc1)C(F)(F)F (relative stereo) [CPD0072777, (1rel-r,4rel-r)-N-[(1S)-1-(4-{4-chloro-13,13-dimethyl-2,3,7,10-tetraazatricyclo[7.4.0.0^2,6]trideca-1(9),3,5,7-tetraen-10-yl}phenyl)-2,2,2-trifluoroethyl]-N-methyl-1-oxo-1λ^4-thiane-4-carboxamide] | 0.036 µM | 0.062 µM |
| CN(C(=O)[C@H]1CC[S@@](=N)(=O)CC1)[C@@H](c1ccc(N2CCC(C)(C)c3c2cnc2cc(F)nn32)cc1)C(F)(F)F (relative stereo) [CPD0072782] | 0.095 µM | 0.053 µM |
| CN(C(=O)[C@H]1CC[S@](=N)(=O)CC1)[C@@H](c1ccc(N2CCC(C)(C)c3c2cnc2cc(F)nn32)cc1)C(F)(F)F (relative stereo) [CPD0072783, (1rel-r,4rel-r)-1-imino-N-methyl-1-oxo-N-[(1S)-2,2,2-trifluoro-1-(4-{4′-fluoro-2′,3′,7′,10′-tetraazaspiro[cyclopropane-1,13′-tricyclo[7.4.0.0^2,6]tridecane]-1′(9′),3′,5′,7′-tetraen-10′-yl}phenyl)ethyl]-1λ^6-thiane-4-carboxamide] | 0.114 µM | 0.063 µM |
| CN(C(=O)[C@H]1CC[S@@](=N)(=O)CC1)[C@@H](c1ccc(N2CCC(C)(C)c3c2cnc2cc(Cl)nn32)cc1)C(F)(F)F (relative stereo) [CPD0072784, (1rel-s,4rel-s)-N-[(1S)-1-(4-{4-chloro-13,13-dimethyl-2,3,7,10-tetraazatricyclo[7.4.0.0^2,6]trideca-1(9),3,5,7-tetraen-10-yl}phenyl)-2,2,2-trifluoroethyl]-1-imino-N-methyl-1-oxo-1λ^6-thiane-4-carboxamide] | 0.056 µM | 0.074 µM |
| CN(C(=O)[C@H]1CC[S@](=N)(=O)CC1)[C@@H](c1ccc(N2CCC(C)(C)c3c2cnc2cc(Cl)nn32)cc1)C(F)(F)F (relative stereo) [CPD0072785, (1rel-r,4rel-r)-N-[(1S)-1-(4-{4-chloro-13,13-dimethyl-2,3,7,10-tetraazatricyclo[7.4.0.0^2,6]trideca-1(9),3,5,7-tetraen-10-yl}phenyl)-2,2,2-trifluoroethyl]-1-imino-N-methyl-1-oxo-1λ^6-thiane-4-carboxamide] | 0.051 µM | 0.076 µM |
| CN(C(=O)C[C@H]1CCS(=O)(=O)C1)[C@@H](c1ccc(N2CCCc3c2cnc2cc(Cl)nn32)cc1)C(F)(F)F (relative stereo) [CPD0072799, N-[(1S)-1-(4-{4-chloro-2,3,7,10-tetraazatricyclo[7.4.0.0^2,6]trideca-1(9),3,5,7-tetraen-10-yl}phenyl)-2,2,2-trifluoroethyl]-2-[(3rel-S)-1,1-dioxo-1λ^6-thiolan-3-yl]-N-methylacetamide] | 0.178 µM | 0.088 µM |
| CN(C(=O)C[C@@H]1CCS(=O)(=O)C1)[C@@H](c1ccc(N2CCCc3c2cnc2cc(Cl)nn32)cc1)C(F)(F)F (relative stereo) [CPD0072800, N-[(1S)-1-(4-{4-chloro-2,3,7,10-tetraazatricyclo[7.4.0.0^2,6]trideca-1(9),3,5,7-tetraen-10-yl}phenyl)-2,2,2-trifluoroethyl]-2-[(3rel-R)-1,1-dioxo-1λ^6-thiolan-3-yl]-N-methylacetamide] | 0.187 µM | 0.092 µM |
| CN(C(=O)[C@H]1CC[S@@](=N)(=O)CC1)[C@@H](c1ccc(N2CCC3(CC3)c3c2cnc2cc(F)nn32)cc1)C(F)(F)F (relative stereo) [CPD0072852, (1rel-s,4rel-s)-1-imino-N-methyl-1-oxo-N-[(1S)-2,2,2-trifluoro-1-(4-{4′-fluoro-2′,3′,7′,10′-tetraazaspiro[cyclopropane-1,13′-tricyclo[7.4.0.0^2,6]tridecane]-1′(9′),3′,5′,7′-tetraen-10′-yl}phenyl)ethyl]-1λ^6-thiane-4-carboxamide] | 0.065 µM | 0.028 µM |
| CN(C(=O)[C@H]1CC[S@](=N)(=O)CC1)[C@@H](c1ccc(N2CCC3(CC3)c3c2cnc2cc(F)nn32)cc1)C(F)(F)F (relative stereo) [CPD0072853, (1rel-r,4rel-r)-1-imino-N-methyl-1-oxo-N-[(1S)-2,2,2-trifluoro-1-(4-{4′-fluoro-2′,3′,7′,10′-tetraazaspiro[cyclopropane-1,13′-tricyclo[7.4.0.0^2,6]tridecane]-1′(9′),3′,5′,7′-tetraen-10′-yl}phenyl)ethyl]-1λ^6-thiane-4-carboxamide] | 0.062 µM | 0.023 µM |
